US20060009438A2, “MODIFIED, HYDROXY-SUBSTITUTED AROMATIC STRUCTURES HAVING CYTOPROTECTIVE ACTIVITY” (Washington University, priority 2000, published 2006)
pEC50: −log10 of the molar value. Like-named read-outs stand apart in the source and are kept apart here.

Key:
[1] = tested on: HT-22 cells (immortalized hippocampal neurons); assay: HT-22 Cell Neuroprotection Assay (glutamate insult, calcein AM viability); format: cell-based, murine; conditions: ~16 h
Procedure: HT-22 cells (immortalized hippocampal neurons of murine origin) were maintained in DMEM media (Life Technologies, Inc., Gaitherburg, MD) supplemented with 10% charcoal-stripped FBS (HyClone Laboratories, Inc., Logan, UT) and 20 µg/mL gentamycin, according to standard culture conditions.
Cells were plated at a density of 5,000 cells/well in clear-bottomed Nunc 96-well plates (Fisher Scientific, Orlando, FL) and allowed to incubate overnight. Steroids dissolved in DMSO were added at concentrations ranging from 0.01-10 µM and were co-administered with glutamate (10 mM or 20 mM). DMSO was used at concentrations of 0.1% vol/vol as a vehicle control and had no discernible effect on cell viability. After ~16 h of glutamate exposure, cells were rinsed with PBS, pH 7.4, and viability was assessed by the addition of 25 µM calcein AM (Molecular Probes, Inc., Eugene, OR) in PBS for 15 min at room temperature. Fluorescence was determined (excitation 485, emission 530) using a fluorescence FL600 microplate reader (Biotek, Winooski, VT). Cells that were lysed by addition of methanol were used for blank readings. All data were normalized to % cell death, as calculated by (control value - insult value)/control value x 100.

[2] = tested on: cortical neurons; assay: NMDA-induced neuronal cell death in mixed cortical neuron/glial cultures (Trypan blue counting); format: cell-based, mouse
Procedure: Glial cell cultures: Glial cell cultures were prepared from P1 mice. Briefly, cortex from P1 mice were dissected and digested with 0.025% trypsin for 30-40 min. After trituration, the cells were plated on poly-D-lysine/laminin coated glass-bottom dishes at a density of approximately 5 x 10^6 cells per dish. Cells were grown for 7-10 days in Eagle's minimal essential medium supplemented with 10% fetal bovine serum, 10% horse serum, 10 ng/ml epidermal growth factor, 2 mM glutamine and 20 mM glucose. Cultures were kept at 37°C in a humidified CO2 atmosphere until they reached confluence. Cultures were then used to support neurons (see below).
Cortical neuronal cultures: Cortical neurons were prepared from E15-16 mouse embryos. Dissociated cortical cells (at a density of 5x 10^6 cells per dish) were plated on a layer of confluent glial cells (7-10 days in vitro), into Eagle's minimal essential medium supplemented with 5% fetal bovine serum, 5% horse serum, 2 mM glutamine, and 21 mM glucose. Cultures were kept at 37°C in a humidified 5% CO2 atmosphere. After 3-5 days in vitro, non-neuronal cell division was halted by exposure to 10^-5 M cytosine arabinoside for 2 days, and cultures were shifted to a growth medium identical to the plating medium but lacking […]. Cultures 9-14 days in vitro were used for the experiments.
Neuronal cell death: Mixed neuron/glial cultures were exposure to NMDA (30 µM) for 24 hours in medium stock (MS) (minimal essential medium with 15.8 mM NaHCO3 and 20 mM glucose, pH 7.4) at 37°C. Cell death was assessed […] by counting cells that stained with Trypan blue (0.4% for 10 minutes at 37°C). Stained neurons were counted from three random fields per dish. For the experiments to test the neuroprotective effect of the 17-β-estradiol and the adamantyl-modified analog thereof, cultures were incubated with the drugs for various time periods prior to when NMDA was added to the medium. Results

[3] = 10 mM glutamate co-administered, read-out: Sterioid concentration needed to protect 50% of neurons killed by 10 mM Glutamate ED50
[4] = 20 mM glutamate co-administered, read-out: Sterioid concentration needed to protect 50% of neurons killed by 20 mM Glutamate ED50

SMILES	pEC50 [1, 3]	pEC50 [1, 4]	other results
Cc1c(O)c(C23CC4CC(CC(C4)C2)C3)cc2c1CC[C@@H]1[C@@H]2CC[C@]2(C)C(=O)CC[C@@H]12 [ZYC-26, 2-(1-admantanyl)-3-hydroxy-4-methylestra-1,3,5(10)-trien-17-one]			melting point: 262 to 263 °C
C[C@]12CC[C@@H]3c4ccc(O)cc4CC[C@H]3[C@@H]1CC[C@H]2O [17 α-Estradiol, 17α-estradiol]	5.51	4.79	
C[C@@]12CC[C@H]3c4ccc(O)cc4CC[C@@H]3[C@H]1CC[C@H]2O (single isomer, unassigned; ent-17) [Ent-(17 β)-Estradiol, ent-17β-estradiol]	5.97	5.90	
C[C@]12CC[C@@H]3c4cc(C56CC7CC(CC(C7)C5)C6)c(O)cc4CC[C@H]3[C@@H]1CC[C@@H]2O [ZYC-5, (17 β)-2-(1-Adamantyl)-estra-1,3,5(10)-triene-3,17-diol]			protective effect against NMDA-induced neuronal death ([2]; 100 nM dosage, 30 µM NMDA for 24 hours (Figure 5)): 10%; protection from neuronal death due to NMDA exposure ([2]; 1 µM drug, pre-incubation, 30 µM NMDA for 24 hours (Figure 5)): about half; effectiveness relative to 17-β-estradiol ([2]; 1 µM versus 10 µM 17-β-estradiol (one-tenth the dosage)): more than three times more effective; neuronal survival versus pre-incubation time ([2]; 1 µM, 1-12 hours pre-incubation prior to NMDA exposure (Figure 6)): no significant difference; neuronal protection versus pre-incubation time ([2]; 1 µM, 24 hours pre-incubation prior to NMDA exposure (Figure 6)): best protection results
CC(C)(C)c1cc2c(cc1O)CCC1C2CCC2(C)C(O)CCC12 (stereo not drawn) [ZYC-34, Ent-(17β)-2-(1,1-dimethylethyl)estra-1,3,5(10)-triene-3,17-diol]	6.62	6.59	
CC12CCC3c4cc(C56CC7CC(CC(C7)C5)C6)c(O)cc4CCC3C1CCC2O (stereo not drawn) [ZYC-33, Ent-(17β)-2-(1-Adamantyl)estra-1,3,5(10)-triene-3,17-diol]	7.19	7.72	
Cc1c(O)c(C(C)(C)C)cc2c1CC[C@@H]1[C@@H]2CC[C@]2(C)C(=O)CC[C@@H]12 [ZYC-25, 2-(1,1-Dimethylethyl)-3-hydroxy-4-methylestra-1,3,5(10)-trien-17-one]			melting point: 190 to 192 °C
C[C@]12CC[C@@H]3c4ccc(O)cc4CC[C@H]3[C@@H]1CC[C@@H]2O [17-β Estradiol, 17-β-estradiol]	5.66	5.52	reduction of neuronal loss due to NMDA exposure ([2]; 10 µM drug, pre-incubation, 30 µM NMDA for 24 hours (Figure 5)): about 15%
